From patent US8309586B2, “Glucokinase activators and pharmaceutical compositions containing the same as an active ingredient” (LG Life Sciences Ltd., priority 2007, dated 2012)

These compounds were tested on Glucokinase known as hexokinase IV (human GK isoform 1, pancreas form and human GK isoform 2, liver form) (assay: Glucokinase enzymatic activity assay (G6PDH-coupled, NADH absorbance at 340 nm)). Conditions: 5 mM glucose, 1 mM ATP, 37 nM GK, 10 min at room temperature.
Assay type: biochemical
Procedure: Glucokinase known as hexokinase IV (human GK isoform 1, pancreas form and human GK isoform 2, liver form) was cloned into an expression vector pET15 fx (Novagen Co.), transformed to E. coli BL21 (DE3) (Invitrogen Co.) strain, expressed, and purified using a nickel column. Then, the glucokinase obtained from dialysis was used in the following assay.
Glucokinase assay was performed by measuring absorbance according to the conventional manner. Briefly speaking, glucokinase converts the substrate glucose to glucose-6-phosphate under certain conditions, and glucose-6-phosphate dehydrogenase irreversibly converts glucose-6-phosphate to gluconate-6-phosphate. During this procedure, NADH is formed, and its absorbance is measured to calculate the enzymatic activity.
In the measurement of the enzymatic activity, each compound was diluted by two-fold from the maximum to the minimum concentrations, and 2 μl of each solution was added to 96 well UV plate (BD bioscience). 60 μl of the first mixture (final concentrations 25 mM Hepes, 25 mM KCl, 2 mM MgCl2, 1 mM DTT) was added, and thoroughly mixed. 38 μl of the enzyme mixture (final concentrations 1 mM ATP, 1 mM NAD, 5 mM glucose, 0.85U G6PDH, 37 nM GK) was added (final volume 100 μl), and the mixture was reacted for 10 min at room temperature. The absorbance of NADH was measured at 340 nm using a UV spectrometer (Molecular Device).
The enzyme activating abilities of the compounds according to the present invention are represented as AC1.5 (the compound concentration at which the enzymatic activity is increased by 1.5 times, nM), which is in the range of 0.001 uM to 30 uM or less, preferably 0.001 uM to 10 uM, more preferably 0.001 uM to 1 uM.

Compound | AC1.5 (the compound concentration at which the enzymatic activity is increased by 1.5 times) [nM]
CS(=O)(=O)c1ccc(Oc2cc(NC3CCCC3)c3[nH]c(C4=N[C@H](CC(=O)O)CS4)cc3c2)cc1 [Example 64, {(R)-2-[7-cyclopentylamino-5-(4-methanesulfonyl-phenoxy)-1H-indol-2-yl]-4,5-dihydro-thiazol-4-yl}-acetic acid] | 17
OC[C@@H]1CSC(c2cc3cc(Cc4cc[nH]c4)cc(NC4CCCC4)c3[nH]2)=N1 [Example 23, {(R)-2-[7-cyclopentylamino-5-(1H-pyrrol-3-ylmethyl)-1H-indol-2-yl]-4,5-dihydro-thiazol-4-yl}-methanol] | 19
O=C(CO)N1CCN(CC[C@@H]2CSC(c3cc4cc(F)cc(NC5CCOCC5)c4[nH]3)=N2)CC1 [Example 140, 1-[4-(2-{(R)-2-[5-fluoro-7-(tetrahydro-pyran-4-ylamino)-1H-indol-2-yl]-4,5-dihydro-thiazol-4-yl}-ethyl)-piperazin-1-yl]-2-hydroxy-ethanone] | 52
OC[C@@H]1CSC(c2cc3cc(Cl)cc(NC4CCSCC4)c3[nH]2)=N1 [Example 9, {(R)-2-[5-chloro-7-(tetrahydro-thiopyran-4-ylamino)-1H-indol-2-yl]-4,5-dihydro-thiazol-4-yl}-methanol] | 24
O=C(c1ccco1)N1CCN(CC[C@@H]2CSC(c3cc4cc(Cl)cc(NC5CCOCC5)c4[nH]3)=N2)CC1 [Example 121, [4-(2-{(R)-2-[5-chloro-7-(tetrahydro-pyran-4-ylamino)-1H-indol-2-yl]-4,5-dihydro-thiazol-4-yl}-ethyl)-piperazin-1-yl]-furan-2-yl-methanone] | 40
COc1cc(NC2CCCC2)c2[nH]c(C3=N[C@H](CCN4CCN(C(=O)CO)CC4)CS3)cc2c1 [Example 146, 1-(4-{2-[(R)-2-(7-cyclopentylamino-5-methoxy-1H-indol-2-yl)-4,5-dihydro-thiazol-4-yl]-ethyl}-piperazin-1-yl)-2-hydroxy-ethanone] | 29
COC(=O)C[C@@H]1CSC(c2cc3cc(C)cc(NC4CCCC4)c3[nH]2)=N1 [Example 60, [(R)-2-(7-cyclopentylamino-5-methyl-1H-indol-2-yl)-4,5-dihydro-thiazol-4-yl]acetic acid methyl ester] | 29
CCS(=O)(=O)N1CCN(CC[C@@H]2CSC(c3cc4cc(Cl)cc(NC5CCCC5)c4[nH]3)=N2)CC1 [Example 98, (5-chloro-2-{(R)-4-[2-(4-ethanesulfonyl-piperazin-1-yl)-ethyl]-4,5-dihydro-thiazol-2-yl}-1H-indol-7-yl)-cyclopentyl-amine] | 7
O=C(O)CC[C@@H]1CSC(c2cc3cc(F)cc(NC4CCCC4)c3[nH]2)=N1 [Example 161, 3-[(R)-2-(7-cyclopentylamino-5-fluoro-1H-indol-2-yl)-4,5-dihydro-thiazol-4-yl]-propionic acid] | 10
CN1CCN(CC[C@@H]2CSC(c3cc4cc(Cl)cc(NC5CCCC5)c4[nH]3)=N2)CC1 [Example 100, (5-chloro-2-{(R)-4-[2-(4-methyl-piperazin-1-yl)-ethyl]-4,5-dihydro-thiazol-2-yl}-1H-indol-7-yl)-cyclopentyl-amine] | 11
O=C(O)C[C@@H]1CSC(c2cc3cc(Oc4cccnc4)cc(NC4CCOCC4)c3[nH]2)=N1 [Example 59, {(R)-2-[5-(pyridin-3-yloxy)-7-(tetrahydro-pyran-4-ylamino)-1H-indol-2-yl]-4,5-dihydro-thiazol-4-yl}-acetic acid] | 28
CNC(=O)C[C@@H]1CSC(c2cc3cccc(NC4CCCC4)c3[nH]2)=N1 [Example 90, 2-[(R)-2-(7-cyclopentylamino-1H-indol-2-yl)-4,5-dihydro-thiazol-4-yl]-N-methyl-acetamide] | 37
CC(=O)N1CCN(C(=O)C[C@@H]2CSC(c3cc4cc(F)cc(NC5CCCC5)c4[nH]3)=N2)CC1 [Example 86, 1-(4-acetyl-piperazin-1-yl)-2-[(R)-2-(7-cyclopentylamino-5-fluoro-1H-indol-2-yl)-4,5-dihydro-thiazol-4-yl]-ethanone] | 23
CC(=O)N1CCN(CCC[C@@H]2CSC(c3cc4cc(Cl)cc(NC5CCCC5)c4[nH]3)=N2)CC1 [Example 155, 1-(4-{3-[(R)-2-(5-chloro-7-cyclopentylamino-1H-indol-2-yl)-4,5-dihydro-thiazol-4-yl]-propyl}-piperazin-1-yl)-ethanone] | 12
Fc1cc(NC2CCCC2)c2[nH]c(C3=N[C@H](CCN4CCOCC4)CS3)cc2c1 [Example 126, cyclopentyl-{5-fluoro-2-[(R)-4-(2-morpholin-4-yl-ethyl)-4,5-dihydro-thiazol-2-yl]-1H-indol-7-yl}-amine] | 20
CNC(=O)C[C@@H]1CSC(c2cc3cc(Cl)cc(NC4CCCC4)c3[nH]2)=N1 [Example 76, 2-[(R)-2-(5-chloro-7-cyclopentylamino-1H-indol-2-yl)-4,5-dihydro-thiazol-4-yl]-N-methyl-acetamide] | 14
COc1cc(NC2CCOCC2)c2[nH]c(C3=N[C@H](CC(=O)O)CS3)cc2c1 [Example 51, {(R)-2-[5-methoxy-7-(tetrahydro-pyran-4-ylamino)-1H-indol-2-yl]-4,5-dihydro-thiazol-4-yl}-acetic acid] | 167
Clc1cc(NC2CCOCC2)c2[nH]c(C3=N[C@H](CCN4CCN(c5cnccn5)CC4)CS3)cc2c1 [Example 122, (5-chloro-2-{(R)-4-[2-(2,3,5,6-tetrahydro-[1,2′]bipyrazinyl-4-yl)-ethyl]-4,5-dihydro-thiazol-2-yl}-1H-indol-7-yl)-(tetrahydropyran-4-yl)-amine] | 60
COC(=O)C[C@@H]1CSC(c2cc3cc(OC)cc(NC4CCCC4)c3[nH]2)=N1 [Example 47, [(R)-2-(7-cyclopentylamino-5-methoxy-1H-indol-2-yl)-4,5-dihydro-thiazol-4-yl]-acetic acid methyl ester] | 27
Fc1cc(NC2CCCC2)c2[nH]c(C3=N[C@H](CCN4CCCC4)CS3)cc2c1 [Example 128, cyclopentyl-{5-fluoro-2-[(R)-4-(2-pyrrolidin-1-yl-ethyl)-4,5-dihydro-thiazol-2-yl]-1H-indol-7-yl}-amine] | 16
COc1cc(NC2CCCC2)c2[nH]c(C3=N[C@H](CC(=O)O)CS3)cc2c1 [Example 48, [(R)-2-(7-cyclopentylamino-5-methoxy-1H-indol-2-yl)-4,5-dihydro-thiazol-4-yl]-acetic acid] | 9
c1cc(NC2CCCC2)c2[nH]c(C3=N[C@H](CCN4CCOCC4)CS3)cc2c1 [Example 143, cyclopentyl-{2-[(R)-4-(2-morpholin-4-yl-ethyl)-4,5-dihydro-thiazol-2-yl]-1H-indol-7-yl}-amine] | 37
COCC[C@@H]1CSC(c2cc3cccc(NC4CCCC4)c3[nH]2)=N1 [Example 141, cyclopentyl-{2-[(R)-4-(2-methoxy-ethyl)-4,5-dihydro-thiazol-2-yl]-1H-indol-7-yl}-amine] | 24
O=C(O)CC[C@@H]1CSC(c2cc3cc(Br)cc(NC4CCCC4)c3[nH]2)=N1 [Example 163, 3-[(R)-2-(5-bromo-7-cyclopentylamino-1H-indol-2-yl)-4,5-dihydro-thiazol-4-yl]-propionic acid] | 5
CCOC(=O)c1c(C)ncn1CC[C@@H]1CSC(c2cc3cc(Cl)cc(NC4CCCC4)c3[nH]2)=N1 [Example 109, 3-{2-[(R)-2-(5-chloro-7-cyclopentylamino-1H-indol-2-yl)-4,5-dihydro-thiazol-4-yl]-ethyl}-5-methyl-3H-imidazole-4-carboxylic acid ethyl ester] | 26
